# According to patent publication US20020172694A1, “Extended release formulation of diltiazem hydrochloride” (DOV Pharmaceutical, Inc., priority 2001, published 2002):
# Where a name gives a salt, the structure may show the parent alone.
# How the values were obtained:
# [1] = single oral dose, healthy individual, FIG. 6
# Procedure: One hundred twenty milligrams (120 mg) of diltiazem hydrochloride powder were combined with a 360 mg dose of DILTIAZEM OD ER. […] Consequently, this mixture contained approximately 25 percent by weight of a quick release preparation of diltiazem, and approximately 75 percent by weight of a slow release preparation of diltiazem, based upon the percentage of diltiazem in the final mixture.
# The resulting mixture was then encapsulated in a larger gelatin capsule and orally administered to a healthy individual, taking no medications which would affect diltiazem plasma levels or interfere with their proper determination. Controls containing either 120 mg diltiazem hydrochloride or 360 mg Diltiazem ER were administered separately. An interval of approximately 5-7 days elapsed between the administration of each agent tested in this example.
# An intravenous blood sample was withdrawn into pre-cooled, commercially available [sequence] (TM) containing EDTA (ethylenediamine tetraacetic acid) as an anticoagulant Just before administration of the test agent; this sample represented the zero time sample. The blood sample was centrifuged for 15 minutes under conditions known to those skilled in the art. […] The plasma levels of diltiazem were determined by HPLC (High Performance Liquid Chromatography) analysis according to the method of Eradiri (36).
# angina pectoris = conditions: cited from earlier work
# [2] = in vivo; cited from earlier work
SMILES,time after administration by which most of the preparation is gone [1] [h],time to peak plasma levels of diltiazem after administration [1] [h],incidence of side effects versus other calcium channel blockers (angina pectoris; comparative studies),"efficacy versus beta-adrenergic receptor blockers, nitrates and verapamil (angina pectoris; in vivo)",efficacy versus nifedipine (angina pectoris; in vivo),plasma half-life [2] [h]
COc1ccc([C@@H]2Sc3ccccc3N(CCN(C)C)C(=O)[C@@H]2OC(C)=O)cc1 [diltiazem hydrochloride],5 to 6,1 to 2,,,,
"COc1ccc([C@@H]2Sc3ccccc3N(CCN(C)C)C(=O)[C@@H]2OC(C)=O)cc1 [diltiazem, 25-cis-3-(Acetoxyl)-5-[2-(dimethylamino)ethyl]-2-3-dihydro-2-(4-methoxyphenyl)-1,5-benzothiazepin-4(5H)-one]",,,lower incidence of side effects,equivalent,more effective,2 to 6
